In BindingDB's records for doi:10.1016/j.bmcl.2016.03.078 (Merck Research Laboratories, 2016):
pIC50: −log10 of the molar value.

Molecular target: E3 ubiquitin-protein ligase Mdm2 (Homo sapiens, UniProt Q00987)
Assay: Displacement of Ac-Phe-Arg-Dpr(fluorophore)-Ac6c-(6-Br)Trp-Glu-Glu-Leu-NH2 from human N-terminal His6-tagged MDM2 (17 to 125 residues) expressed in Escherichia coli by fluorescence polarization assay

E3 ubiquitin-protein ligase Mdm2, sequence (Q00987 whole entry, the tested form may be a part): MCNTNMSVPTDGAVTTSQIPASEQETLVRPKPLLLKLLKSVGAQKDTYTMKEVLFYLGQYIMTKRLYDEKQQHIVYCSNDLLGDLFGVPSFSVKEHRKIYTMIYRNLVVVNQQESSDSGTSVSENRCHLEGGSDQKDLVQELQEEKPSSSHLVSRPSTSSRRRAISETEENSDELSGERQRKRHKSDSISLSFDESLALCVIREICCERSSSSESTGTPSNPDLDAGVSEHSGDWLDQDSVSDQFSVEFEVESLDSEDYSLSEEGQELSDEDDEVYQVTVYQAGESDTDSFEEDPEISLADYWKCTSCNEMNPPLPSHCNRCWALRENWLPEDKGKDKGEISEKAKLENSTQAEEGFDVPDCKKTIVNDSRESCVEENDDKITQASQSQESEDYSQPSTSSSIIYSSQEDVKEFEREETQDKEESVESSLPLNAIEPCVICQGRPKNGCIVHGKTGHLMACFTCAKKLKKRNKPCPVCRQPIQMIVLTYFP

O=C(c1cnccc1C(F)(F)F)N1CCCC(Oc2ccc(C(F)(F)F)cc2)(C(=O)N2CCN(c3ccccn3)CC2)C1 (stereo unspecified)
pIC50: 5.64
